Experimental data from patent US8921362B2, “6,7-dialkoxy quinazoline derivatives and methods of treating drug resistant and other tumors” (Natco Pharma Limited, priority 2008, dated 2014).

Tests used:
Test in all cases: KinomeScan
Format in all cases: binding
Settings in all cases: read-out: % Ctrl @ 10000 nM
[1] = target: T1, AKT3 (Homo sapiens, UniProt Q9Y243)
T1 construct: host or cells: E. coli (BL21-derived), T7 phage lysate
Description: (§1) Kinase assays: Assays were performed as described in Fabian et al. (2005) Nature Biotechnology, vol. 23, p. 329. Kinase-tagged T7 phage strains were grown in parallel in 24 or 96-well blocks in an E. coli host derived from the BL21 strain. E. coli were grown to log-phase and infected with T7 phage from a frozen stock (multiplicity of infection ˜0.1) and incubated with shaking at 32° C. until lysis (−90 minutes). The lysates were centrifuged and filtered to remove cell debris. […] The liganded beads were blocked with excess biotin and washed with blocking buffer (SeaBlock (Pierce), 1% BSA, 0.05% Tween 20, 1 mM DTT) to remove unbound ligand and to reduce non-specific phage binding.
(§2) Test compounds were prepared as 40× stocks in DMSO and diluted into the aqueous environment. 2.5% DMSO was added to control assays lacking a test compound. All reactions were performed in polystyrene 96-well plates that had been pretreated with blocking buffer in a final volume of 0.04 ml. […] The phage titer in the eluates was measured by quantitative PCR.

[2] = target: T2, AMPK-alpha2 (Homo sapiens, UniProt P54646)
T2 construct: host or cells: E. coli (BL21-derived), T7 phage lysate
T2 sequence (P54646 whole entry): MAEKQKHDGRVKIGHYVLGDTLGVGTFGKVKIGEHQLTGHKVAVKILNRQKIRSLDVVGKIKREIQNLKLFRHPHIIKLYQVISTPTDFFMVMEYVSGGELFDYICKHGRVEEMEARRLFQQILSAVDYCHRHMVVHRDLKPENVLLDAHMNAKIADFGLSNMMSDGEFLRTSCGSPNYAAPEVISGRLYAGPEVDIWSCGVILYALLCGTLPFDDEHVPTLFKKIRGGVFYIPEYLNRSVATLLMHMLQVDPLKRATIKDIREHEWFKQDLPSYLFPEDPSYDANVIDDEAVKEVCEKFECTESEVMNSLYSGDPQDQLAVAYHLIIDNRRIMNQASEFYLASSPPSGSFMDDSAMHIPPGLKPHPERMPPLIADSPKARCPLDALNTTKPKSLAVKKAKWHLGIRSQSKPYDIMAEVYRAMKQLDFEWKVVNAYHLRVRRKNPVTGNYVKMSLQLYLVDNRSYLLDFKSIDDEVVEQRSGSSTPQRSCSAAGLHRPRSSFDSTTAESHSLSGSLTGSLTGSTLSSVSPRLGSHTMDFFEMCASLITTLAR
Description: as §1, §2

[3] = target: T3, AURKA (Homo sapiens, UniProt O14965)
T3 construct: host or cells: E. coli host derived from BL21
Description: as §1, §2

[4] = target: T4, AURKB (Homo sapiens, UniProt Q96GD4)
T4 construct: host or cells: E. coli host derived from BL21
Description: as §1, §2

[5] = target: T5, AXL (Homo sapiens, UniProt P30530)
T5 construct: host or cells: E. coli host derived from BL21
Description: as §1, §2

[6] = target: T6, BRAF (Homo sapiens, UniProt P15056)
T6 construct: host or cells: E. coli host derived from BL21
Description: as §1, §2

[7] = target: T7, BTK (Homo sapiens, UniProt Q06187)
T7 construct: host or cells: E. coli host derived from BL21
Description: as §1, §2

[8] = target: T8, CAMK2G (Homo sapiens, UniProt Q13555)
T8 construct: host or cells: E. coli host derived from BL21
Description: as §1, §2

[9] = target: T9, CHEK1 (Homo sapiens, UniProt O14757)
T9 construct: host or cells: T7 phage in E. coli host derived from BL21
T9 sequence (O14757 whole entry): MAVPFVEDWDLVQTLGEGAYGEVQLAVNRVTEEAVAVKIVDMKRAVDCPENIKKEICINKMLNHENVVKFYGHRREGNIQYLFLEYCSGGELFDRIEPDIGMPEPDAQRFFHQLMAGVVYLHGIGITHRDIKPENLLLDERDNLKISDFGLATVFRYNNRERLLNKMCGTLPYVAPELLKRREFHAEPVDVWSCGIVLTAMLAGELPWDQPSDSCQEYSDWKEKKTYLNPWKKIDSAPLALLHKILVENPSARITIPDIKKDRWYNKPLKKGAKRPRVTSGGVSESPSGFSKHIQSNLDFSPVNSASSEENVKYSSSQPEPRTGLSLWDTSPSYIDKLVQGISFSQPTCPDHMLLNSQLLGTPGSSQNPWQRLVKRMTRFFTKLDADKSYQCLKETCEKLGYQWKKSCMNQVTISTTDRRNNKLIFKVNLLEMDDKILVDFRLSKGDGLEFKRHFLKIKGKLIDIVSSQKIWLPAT
Description: as §1, §2

[10] = target: T10, CLK2 (Homo sapiens, UniProt P49760)
T10 construct: host or cells: T7 phage in E. coli host derived from BL21
Description: as §1, §2

[11] = target: T11, DDR1 (Homo sapiens, UniProt Q08345)
T11 construct: purchased Ambit Biosciences Corp (KinomeScan); host or cells: T7 phage in E. coli host derived from BL21
Description: as §1, §2

[12] = target: T12, DYRK1B (Homo sapiens, UniProt Q9Y463)
T12 construct: purchased Ambit Biosciences Corp (KinomeScan); host or cells: T7 phage in E. coli host derived from BL21
Description: as §1, §2

[13] = target: T13, EGFR(L747-T751del, Sins) (Homo sapiens, UniProt P00533, DEL747-750/T751S)
T13 construct: purchased Ambit Biosciences Corp; host or cells: T7 phage in E. coli host derived from BL21
Description: as §1, §2

[14] = target: T14, EPHA3 (Homo sapiens, UniProt P29320)
T14 construct: purchased Ambit Biosciences Corp; host or cells: T7 phage in E. coli host derived from BL21
Description: as §1, §2

[15] = target: T15, FAK (Homo sapiens, UniProt Q05397)
T15 construct: purchased Ambit Biosciences Corp; host or cells: T7 phage in E. coli host derived from BL21
Description: as §1, §2

[16] = target: T16, FLT3(K663Q) (Homo sapiens, UniProt P36888, K663Q)
T16 construct: host or cells: T7 phage in E. coli host derived from BL21
Description: as §1, §2

[17] = target: T17, FLT4 (Homo sapiens, UniProt P35916)
T17 construct: host or cells: T7 phage in E. coli host derived from BL21
Description: as §1, §2

[18] = target: T18, HCK (Homo sapiens, UniProt P08631)
T18 construct: host or cells: T7 phage in E. coli host derived from BL21
T18 sequence (P08631 whole entry): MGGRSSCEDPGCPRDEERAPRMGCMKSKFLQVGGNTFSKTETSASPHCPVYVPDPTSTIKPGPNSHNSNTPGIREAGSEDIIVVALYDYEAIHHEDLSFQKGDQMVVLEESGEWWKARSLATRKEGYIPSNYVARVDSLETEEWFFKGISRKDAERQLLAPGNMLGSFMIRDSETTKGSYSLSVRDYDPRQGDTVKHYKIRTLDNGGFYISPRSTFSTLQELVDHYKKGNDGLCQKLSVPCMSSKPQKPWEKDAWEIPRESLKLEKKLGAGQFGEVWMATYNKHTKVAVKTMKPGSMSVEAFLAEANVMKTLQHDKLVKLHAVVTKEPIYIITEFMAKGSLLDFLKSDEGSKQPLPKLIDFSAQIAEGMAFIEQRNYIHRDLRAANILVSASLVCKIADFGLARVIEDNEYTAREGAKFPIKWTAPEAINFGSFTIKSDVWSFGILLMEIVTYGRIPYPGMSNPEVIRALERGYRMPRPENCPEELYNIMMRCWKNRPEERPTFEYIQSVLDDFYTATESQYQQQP
Description: as §1, §2

[19] = target: T19, HPK1 (Homo sapiens, UniProt Q92918)
T19 construct: host or cells: T7 phage in E. coli host derived from BL21
Description: as §1, §2

[20] = target: T20, JNK3 (Homo sapiens, UniProt P53779)
T20 construct: host or cells: T7 phage grown in E. coli host derived from BL21
Description: as §1, §2

[21] = target: T21, KIT(D816V) (Homo sapiens, UniProt P10721, D816V)
T21 construct: host or cells: T7 phage grown in E. coli host derived from BL21
T21 sequence (P10721 26-976 D816V): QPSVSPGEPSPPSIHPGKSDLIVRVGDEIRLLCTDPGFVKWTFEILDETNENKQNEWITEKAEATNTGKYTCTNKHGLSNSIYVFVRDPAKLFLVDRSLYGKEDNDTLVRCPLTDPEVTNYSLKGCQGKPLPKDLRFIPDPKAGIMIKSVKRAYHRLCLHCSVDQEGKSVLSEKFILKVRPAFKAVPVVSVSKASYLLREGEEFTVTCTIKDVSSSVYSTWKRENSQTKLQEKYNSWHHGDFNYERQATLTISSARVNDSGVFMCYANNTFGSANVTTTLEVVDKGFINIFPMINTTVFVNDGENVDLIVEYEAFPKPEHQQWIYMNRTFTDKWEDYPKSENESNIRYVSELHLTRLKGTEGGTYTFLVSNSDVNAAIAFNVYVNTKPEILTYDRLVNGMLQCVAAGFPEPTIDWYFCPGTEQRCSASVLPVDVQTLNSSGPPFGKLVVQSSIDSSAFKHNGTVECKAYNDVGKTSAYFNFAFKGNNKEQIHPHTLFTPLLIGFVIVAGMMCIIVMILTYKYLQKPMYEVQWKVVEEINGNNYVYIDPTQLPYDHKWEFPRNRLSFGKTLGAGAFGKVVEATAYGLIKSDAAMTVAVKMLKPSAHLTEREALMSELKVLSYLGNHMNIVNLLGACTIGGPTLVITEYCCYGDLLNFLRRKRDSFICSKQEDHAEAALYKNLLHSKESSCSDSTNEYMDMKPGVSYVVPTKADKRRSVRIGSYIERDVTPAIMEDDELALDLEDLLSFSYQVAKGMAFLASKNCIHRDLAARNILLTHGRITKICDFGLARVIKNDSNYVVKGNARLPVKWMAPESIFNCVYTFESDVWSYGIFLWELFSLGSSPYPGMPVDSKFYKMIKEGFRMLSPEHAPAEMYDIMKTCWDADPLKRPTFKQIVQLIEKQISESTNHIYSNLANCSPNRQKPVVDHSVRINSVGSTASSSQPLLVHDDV
Description: as §1, §2

[22] = target: T22, LTK (Homo sapiens, UniProt P29376)
T22 construct: host or cells: E. coli host derived from the BL21 strain, infected with T7 phage
Description: as §1, §2

[23] = target: T23, MEK3 (Homo sapiens, UniProt P46734)
T23 construct: host or cells: E. coli host derived from the BL21 strain, infected with T7 phage
Description: as §1, §2

[24] = target: T24, MST2 (Homo sapiens, UniProt Q13188)
T24 construct: host or cells: T7 phage grown in E. coli host derived from BL21
Description: as §1, §2

[25] = target: T25, MYLK (Homo sapiens, UniProt Q15746)
T25 construct: host or cells: T7 phage grown in E. coli host derived from BL21
Description: as §1, §2

[26] = target: T26, NEK9 (Homo sapiens, UniProt Q8TD19)
T26 construct: host or cells: T7 phage grown in E. coli host derived from BL21
T26 sequence (Q8TD19 whole entry): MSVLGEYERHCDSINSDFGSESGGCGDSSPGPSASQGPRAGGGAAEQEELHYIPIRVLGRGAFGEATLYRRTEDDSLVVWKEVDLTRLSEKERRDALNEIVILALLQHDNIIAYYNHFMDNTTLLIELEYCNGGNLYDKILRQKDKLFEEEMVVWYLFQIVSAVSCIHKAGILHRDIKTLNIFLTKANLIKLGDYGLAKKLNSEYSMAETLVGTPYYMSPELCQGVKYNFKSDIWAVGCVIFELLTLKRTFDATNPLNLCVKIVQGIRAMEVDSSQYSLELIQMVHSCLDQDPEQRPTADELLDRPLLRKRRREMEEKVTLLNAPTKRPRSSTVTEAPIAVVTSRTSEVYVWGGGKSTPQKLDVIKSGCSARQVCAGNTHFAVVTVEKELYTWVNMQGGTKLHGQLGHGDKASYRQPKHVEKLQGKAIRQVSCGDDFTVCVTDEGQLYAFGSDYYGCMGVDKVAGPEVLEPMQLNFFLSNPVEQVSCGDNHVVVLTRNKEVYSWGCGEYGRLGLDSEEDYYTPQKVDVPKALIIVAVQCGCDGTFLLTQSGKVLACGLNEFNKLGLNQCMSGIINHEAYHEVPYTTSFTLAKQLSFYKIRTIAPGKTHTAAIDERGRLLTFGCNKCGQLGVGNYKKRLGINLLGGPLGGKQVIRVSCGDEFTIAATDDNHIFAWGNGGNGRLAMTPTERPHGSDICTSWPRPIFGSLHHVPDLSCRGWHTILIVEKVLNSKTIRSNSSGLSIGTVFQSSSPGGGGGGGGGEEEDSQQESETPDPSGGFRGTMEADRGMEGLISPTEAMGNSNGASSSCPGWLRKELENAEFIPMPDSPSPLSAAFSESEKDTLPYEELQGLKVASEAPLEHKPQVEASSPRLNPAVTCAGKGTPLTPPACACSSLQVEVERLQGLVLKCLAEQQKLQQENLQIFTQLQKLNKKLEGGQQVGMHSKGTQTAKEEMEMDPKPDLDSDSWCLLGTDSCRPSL
Description: as §1, §2

[27] = target: T27, PAK7 (Homo sapiens, UniProt Q9P286)
T27 construct: host or cells: E. coli host derived from BL21, infected with T7 phage
T27 sequence (Q9P286 whole entry): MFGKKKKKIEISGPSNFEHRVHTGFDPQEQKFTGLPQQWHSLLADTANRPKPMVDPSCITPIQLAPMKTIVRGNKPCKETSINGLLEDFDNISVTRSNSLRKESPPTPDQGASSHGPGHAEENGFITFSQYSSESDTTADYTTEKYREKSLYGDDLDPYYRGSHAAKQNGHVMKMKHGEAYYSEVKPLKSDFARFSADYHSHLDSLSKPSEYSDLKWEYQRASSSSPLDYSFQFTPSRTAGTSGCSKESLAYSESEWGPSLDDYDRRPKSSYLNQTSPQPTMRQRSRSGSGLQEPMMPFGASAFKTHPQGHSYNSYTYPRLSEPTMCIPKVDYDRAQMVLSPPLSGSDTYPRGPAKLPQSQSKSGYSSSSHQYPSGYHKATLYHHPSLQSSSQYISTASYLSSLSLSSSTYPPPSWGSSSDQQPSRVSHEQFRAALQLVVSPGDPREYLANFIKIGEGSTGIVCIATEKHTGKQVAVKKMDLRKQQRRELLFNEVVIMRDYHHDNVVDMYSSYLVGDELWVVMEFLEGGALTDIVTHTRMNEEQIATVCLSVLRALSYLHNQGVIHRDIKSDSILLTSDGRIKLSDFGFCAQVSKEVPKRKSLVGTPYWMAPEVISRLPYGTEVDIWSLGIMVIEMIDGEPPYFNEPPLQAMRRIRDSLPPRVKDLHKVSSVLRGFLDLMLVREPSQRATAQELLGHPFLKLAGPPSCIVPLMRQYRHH
Description: as §1, §2

[28] = target: T28, PRKG2 (Homo sapiens, UniProt Q13237)
T28 construct: host or cells: T7 phage in E. coli host derived from BL21
Description: as §1, §2

[29] = target: T29, PRKX (Homo sapiens, UniProt P51817)
T29 construct: host or cells: E. coli host derived from BL21, T7 phage display
Description: as §1, §2

[30] = target: T30, SRPK2 (Homo sapiens, UniProt P78362)
T30 construct: host or cells: T7 phage grown in E. coli (BL21-derived)
Description: as §1, §2

[31] = target: T31, SRPK3 (Homo sapiens, UniProt Q9UPE1)
T31 construct: host or cells: T7 phage grown in E. coli (BL21-derived)
Description: as §1, §2

[32] = target: T32, TEC (Homo sapiens, UniProt P42680)
T32 construct: host or cells: T7 phage grown in E. coli (BL21-derived)
Description: as §1, §2

[33] = target: T33, TYRO3 (Homo sapiens, UniProt Q06418)
T33 construct: host or cells: E. coli host derived from BL21, T7 phage
T33 sequence (Q06418 41-890): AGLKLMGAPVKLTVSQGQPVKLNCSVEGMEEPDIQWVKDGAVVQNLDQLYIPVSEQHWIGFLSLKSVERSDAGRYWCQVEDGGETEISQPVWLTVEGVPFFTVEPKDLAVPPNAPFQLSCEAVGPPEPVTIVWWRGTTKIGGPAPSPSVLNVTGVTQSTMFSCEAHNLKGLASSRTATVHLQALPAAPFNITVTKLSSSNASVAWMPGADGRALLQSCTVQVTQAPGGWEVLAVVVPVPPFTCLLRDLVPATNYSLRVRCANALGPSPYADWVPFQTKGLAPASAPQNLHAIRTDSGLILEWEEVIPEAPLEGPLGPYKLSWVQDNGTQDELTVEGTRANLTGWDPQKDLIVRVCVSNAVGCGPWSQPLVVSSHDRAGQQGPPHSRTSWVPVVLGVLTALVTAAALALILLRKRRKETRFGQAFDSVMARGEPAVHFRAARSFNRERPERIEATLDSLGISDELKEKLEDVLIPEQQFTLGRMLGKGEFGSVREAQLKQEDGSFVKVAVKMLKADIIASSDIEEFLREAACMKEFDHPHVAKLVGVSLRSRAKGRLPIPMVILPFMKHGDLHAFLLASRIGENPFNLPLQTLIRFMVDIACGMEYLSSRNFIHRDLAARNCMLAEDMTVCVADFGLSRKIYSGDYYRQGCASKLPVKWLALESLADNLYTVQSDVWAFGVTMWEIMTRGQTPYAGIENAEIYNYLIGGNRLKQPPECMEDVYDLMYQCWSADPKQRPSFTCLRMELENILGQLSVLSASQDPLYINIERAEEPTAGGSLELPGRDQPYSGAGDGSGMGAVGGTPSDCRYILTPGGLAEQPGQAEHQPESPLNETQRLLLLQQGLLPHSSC
Description: as §1, §2

[34] = target: T34, VEGFR2 (Homo sapiens, UniProt P35968)
T34 construct: host or cells: E. coli host derived from BL21, T7 phage
Description: as §1, §2

C#Cc1cccc(Nc2ncnc3cc(OC)c(OCCCN4CCOCC4)cc23)c1 [NRC-2694, N-(3-ethynylphenyl)-7-methoxy-6-[3-(4-morpholinyl)propoxy]-4-quinazolinamine]
remaining binding at 10 µM [1]: 66%
remaining binding at 10 µM [2]: 61%
remaining binding at 10 µM [3]: 100%
remaining binding at 10 µM [4]: 56%
remaining binding at 10 µM [5]: 25%
remaining binding at 10 µM [6]: 81%
remaining binding at 10 µM [7]: 77%
remaining binding at 10 µM [8]: 58%
remaining binding at 10 µM [9]: 42%
remaining binding at 10 µM [10]: 64%
remaining binding at 10 µM [11]: 39%
remaining binding at 10 µM [12]: 66%
remaining binding at 10 µM [13]: 0%
remaining binding at 10 µM [14]: 56%
remaining binding at 10 µM [15]: 85%
remaining binding at 10 µM [16]: 56%
remaining binding at 10 µM [17]: 66%
remaining binding at 10 µM [18]: 17%
remaining binding at 10 µM [19]: 47%
remaining binding at 10 µM [20]: 77%
remaining binding at 10 µM [21]: 17%
remaining binding at 10 µM [22]: 3.8%
remaining binding at 10 µM [23]: 100%
remaining binding at 10 µM [24]: 85%
remaining binding at 10 µM [25]: 62%
remaining binding at 10 µM [26]: 85%
remaining binding at 10 µM [27]: 63%
remaining binding at 10 µM [28]: 40%
remaining binding at 10 µM [29]: 100%
remaining binding at 10 µM [30]: 73%
remaining binding at 10 µM [31]: 38%
remaining binding at 10 µM [32]: 90%
remaining binding at 10 µM [33]: 42%
remaining binding at 10 µM [34]: 95%
